# Test results from BindingDB's records for doi:10.1074/jbc.M702153200 (University of Bern, 2007).
# pEC50, pKd: −log10 of the molar value.
# Legend:
# [1] = Displacement of [3H]Ro15-1788 from rat GABAA alpha-1-beta-2-gamma-2 receptor expressed in HEK293 cells after 1 hr assessed as residual binding by liquid scintillation counting
# [2] = molecular target: Gamma-aminobutyric acid receptor subunit alpha-1 (Rattus norvegicus) (UniProt P62813); assay: Activity at rat wild type GABAA alpha-1-beta-2-gamma-2 receptor expressed in xenopus oocytes assessed as GABA-elicited response by two electrode voltage clamp method relative to control
# Gamma-aminobutyric acid receptor subunit alpha-1 (Rattus norvegicus), sequence (P62813 whole entry, looked up): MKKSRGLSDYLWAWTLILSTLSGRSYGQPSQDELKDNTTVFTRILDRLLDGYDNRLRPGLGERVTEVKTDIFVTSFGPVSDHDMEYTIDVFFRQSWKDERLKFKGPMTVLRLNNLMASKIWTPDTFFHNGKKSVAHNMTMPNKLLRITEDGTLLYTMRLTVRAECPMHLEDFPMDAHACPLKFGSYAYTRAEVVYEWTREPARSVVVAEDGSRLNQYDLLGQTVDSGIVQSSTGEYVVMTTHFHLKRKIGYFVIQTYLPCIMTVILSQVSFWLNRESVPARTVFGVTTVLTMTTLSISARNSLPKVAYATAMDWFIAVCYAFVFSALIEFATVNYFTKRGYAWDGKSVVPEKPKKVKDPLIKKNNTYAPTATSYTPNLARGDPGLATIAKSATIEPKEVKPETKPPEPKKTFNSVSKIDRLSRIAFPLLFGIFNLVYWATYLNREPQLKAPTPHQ
Structure (SMILES),pKd [1],pEC50 [2]
"CCOC(=O)c1ncn2c1CN(C)C(=O)c1cc(N=C=S)ccc1-2 [8-Isothiocyanato-5-methyl-6-oxo-5,6-dihydro-4H-2,5,10b-triaza-benzo[e]azulene-3-carboxylic acid ethyl ester]",6.06,6.60
CCOC(=O)c1ncn2c1CN(C)C(=O)c1cc(N=[N+]=[N-])ccc1-2 [RO-154513],–,8.96
